In PMC11360180, “Enhancement of Antimicrobial Function by L/D-Lysine Substitution on a Novel Broad-Spectrum Antimicrobial Peptide, Phylloseptin-TO2: A Structure-Related Activity Research Study” (Pharmaceutics, 2024):
Where a SMILES comes first, the peptide text is derived from it. Where no end group is shown, it is not given here. [ ]: non-standard residue; d: D form.

Tests used:
[1] = test system: S. aureus (ATCC 6538) biofilm; assay type: cell-based, Staphylococcus aureus; conditions: ATCC 6538, 24 h
Method: (§1) To test the anti-biofilm ability of PSTO2 and its analogues, three types of microorganisms (S. aureus ATCC® 6538, E. coli ATCC® 8739, and MRSA NCTC® 12493) were chosen. Tryptic soy broth (TSB) and Lysogeny broth (LB) were used to culture microorganisms. The peptide was dissolved in an autoclaved PBS solution and diluted into concentrations ranging from 51,200 µM to 100 µM. One µL of peptide solution of each concentration was added into a 96-well plate with 100 µL bacterium at 5 × 10^5 CFU/mL. The plate was incubated at 37 °C for 24 h, with shaking at 200 rpm. After overnight incubation, the planktonic bacteria were washed up. Then, 100 µL of methanol was used to fix the biofilms onto the bottom, and 100 µL of 0.1% crystal violet solution (Sigma-Aldrich, Gillingham, UK) was added to each well to stain the biofilms. After drying, 160 µL of acetic acid (30% in deionised water, Sigma-Aldrich, UK) was added to each well to dissolve the shaded parts. The absorbance was detected with the Synergy HT plate reader at λ = 595 nm.
(§2) For the MBEC assay, 100 µL of the bacterium of 5 × 10^5 CFU/mL was transferred into an empty 96-well plate, and the plate was incubated at 37 °C for 24 h to obtain the biofilms primarily. Then, the peptide solution from 512 µM to 1 µM was transferred into a corresponding well, followed by 24 h incubation at 37 °C, with shaking at 200 rpm. After this, the plate was handled using the identical method to the plate in the MBIC assay, and the absorbance of each well was detected with the Synergy HT plate reader at λ = 595 nm. The minimum concentration at which the peptide can eradicate the existing biofilm was recorded as the MBEC value.

C. albicans = assay type: cell-based, Candida albicans; conditions: 24 h
From the text: (§3) Seven microorganism strains were used to preliminarily evaluate the antimicrobial activity of PSTO2 and its analogues, including Staphylococcus aureus (S. aureus) (ATCC® 6538), methicillin-resistant Staphylococcus aureus (MRSA) (NCTC® 12493), Enterococcus faecalis (E. faecalis) (NCTC® 12697), E. coli (ATCC® 8739), Klebsiella pneumonia (K. pneumonia) (ATCC® 43816), Pseudomonas aeruginosa (P. aeruginosa) (ATCC® CRM 9027), Acinetobacter baumanni (A. baumanni) (BAA® 747), and Candida albicans (C. albicans) (ATCC® 10231). In this study, the strains were cultured in Mueller–Hinton broth (MHB), nutrient broth (NB), and yeast–peptone–dextrose broth (YPD-B) correspondingly at 37 °C, with shaking at 120 rpm. Each peptide was dissolved from 128 μM to 1 μM and mixed with the bacterium at 5 × 10^5 CFU/mL. In this process, bacteria with culture medium were used as the growth control group; PBS was set up as the vehicle control group; sterile culture medium was used as the blank control group; and Norfloxacin at a concentration of 2 mg/mL and amphotericin B at a concentration of 1 mg/mL were set up as the positive control group for bacteria and fungi, respectively.
(§4) After being incubated for 24 h, a Synergy HT plate reader (Bio-Tek, Shoreline, WA, USA) was used to detect the absorbance of each well in the 96-well plate at λ = 550 nm. The concentration at which no visible turbidity could be recorded was the MIC value. Beginning from the MIC value, 10 µL of solution in each clear well was dropped on the sterile agar plates. The plate was checked the next day for colony formation, and the lowest concentration at which no colony growing was recorded as an MBC value.

S. aureus (ATCC 6538) = assay type: cell-based, Staphylococcus aureus; conditions: ATCC 6538, 24 h
From the text: as §3, §4

[2] = test system: MRSA (ATCC 12493) biofilm; assay type: cell-based, methicillin-resistant Staphylococcus aureus; conditions: ATCC 12493, 24 h
Method: as §1, §2

MRC-5 = assay type: cell-based; conditions: 24 h
Method: (§5) The percentage of cancer cell survival after being treated with peptides was assessed with 3-(4,5-dimethylthiazol-2-yl-)-2,5-diphenyltetrazolium bromide (MTT). The principle is the reduction process of the yellow tetrazolium to DMSO-soluble formazan crystals caused by the metabolic capability of living cells. All the cancerous and normal cells were obtained from the American Type Culture Collection (Rockville, VA, USA). Human lung cancer NCI-H838 and NCI-H460 were cultured in Roswell Park Memorial Institute (RPMI)-1640 medium (Gibco, Paisley, UK) and mixed with 10% (v/v) fetal bovine serum (FBS) (Gibco, Campinas, Brazil) and 1% penicillin–streptomycin (Gibco, Grand Island, NY, USA) 89/10/1 v/v/v). U251MG and MCF-7 were cultured in Dulbecco’s Modified Eagle medium (DMEM) (Gibco, Paisley, UK) and mixed with 10% FBS and 1% penicillin–streptomycin. HCT 116 was cultured in McCoy’s 5A (modified) medium (Gibco, Paisley, UK) and mixed with 10% FBS and 1% penicillin–streptomycin. MRC-5 and HaCat were cultured in Minimum Essential Medium (MEM) (Gibco, Paisley, UK) and mixed with 10% FBS and 1% penicillin–streptomycin. Cells were cultured and seeded in a 96-well plate at a density of 8000 cells/well with the corresponding medium and incubated for 24 h at 37 °C with 5% CO2. After 24 h of incubation, the cells were starved with a serum-free medium for 4 h at 37 °C. Then, the cells were incubated with different concentrations of peptide solution in a serum-free medium from 1 nM to 100 µM at 37 °C for 24 h. Meanwhile, triton X-100 (0.1%) (Sigma-Aldrich, St. Louis, MO, USA) and PBS were chosen as positive and negative controls. After 10 µL of MTT (5 mg/mL) was added to each well away from light and incubated at 37 °C for 2 h, the formazan generated by mitochondria was dissolved with DMSO. The absorbance was detected at a wavelength of 570 nm by a Synergy HT plate reader (Bio-Tek, Shoreline, WA, USA).

HaCat = assay type: cell-based; conditions: 24 h
Method: as §5

[3] = test system: K. pneumonia (ATCC 43816); assay type: cell-based, Klebsiella pneumonia; conditions: ATCC 43816, 24 h
From the text: as §3, §4

E. coli (ATCC 8739) = assay type: cell-based, Escherichia coli; conditions: ATCC 8739, 24 h
From the text: as §3, §4

MRSA (NCTC 12493) = assay type: cell-based, methicillin-resistant Staphylococcus aureus; conditions: NCTC 12493, 24 h
From the text: as §3, §4

A. baumannii (BAA 747) = assay type: cell-based, Acinetobacter baumanni; conditions: BAA 747, 24 h
From the text: as §3, §4

**Q.** What does the source list for `CC[C@H](C)[C@H](NC(=O)[C@H](C)NC(=O)[C@@H](CCCCN)NC(=O)[C@@H]1CCCN1C(=O)[C@@H](NC(=O)[C@H](CC(C)C)NC(=O)[C@H](CO)NC(=O)[C@H](CC(C)C)NC(=O)[C@@H](N)Cc1ccccc1)[C@@H](C)CC)C(=O)N[C@@H](CCCCN)C(=O)N[C@@H](C)C(=O)N[C@H](C(=O)N[C@@H](CCCCN)C(=O)N[C@@H](C)C(=O)N[C@@H](CC(C)C)C(=O)N[C@@H](C)C(=O)N[C@@H](CCCCN)C(=O)N[C@H](CCCCN)C(=O)N[C@@H](CC(C)C)C(N)=O)C(C)C` [SR2D10] (H-FLSLIP[dK]AIKAVKALAK[dK]L-NH2)?
**A.** MBEC [1]: 32 µM; MBIC [1]: 4 µM; MBC (C. albicans): 128 µM; MIC (C. albicans): 64 µM; MBC (S. aureus (ATCC 6538)): 1/1 μM; MBEC [2]: 32 µM; MBIC [2]: 16 µM; IC50 (MRC-5): 74.39 µM; IC50 (HaCat): 84.03 µM; MBC [3]: 4 µM; MIC [3]: 4 µM; MBC (E. coli (ATCC 8739)): 2 µM; MIC (E. coli (ATCC 8739)): 2 µM; MBC (MRSA (NCTC 12493)): 1/1 μM; MBC (A. baumannii (BAA 747)): 16/16 μM; MIC (A. baumannii (BAA 747)): 16/16 μM

**Q.** How did the MBEC [1] turn out when `CC[C@H](C)[C@H](NC(=O)[C@H](C)NC(=O)[C@@H](CCCCN)NC(=O)[C@@H]1CCCN1C(=O)[C@@H](NC(=O)[C@H](CC(C)C)NC(=O)[C@H](CO)NC(=O)[C@H](CC(C)C)NC(=O)[C@@H](N)Cc1ccccc1)[C@@H](C)CC)C(=O)N[C@@H](CCCCN)C(=O)N[C@@H](C)C(=O)N[C@H](C(=O)N[C@@H](CO)C(=O)N[C@@H](C)C(=O)N[C@@H](CC(C)C)C(=O)N[C@@H](C)C(=O)N[C@@H](CCCCN)C(=O)N[C@@H](CCCCN)C(=O)N[C@@H](CC(C)C)C(N)=O)C(C)C` [SRD7] (H-FLSLIP[dK]AIKAVSALAKKL-NH2) was run?
**A.** Its MBEC is 32 µM.

**Q.** And the MBIC [1]?
**A.** Its MBIC is 2 µM.

**Q.** And the MBC (C. albicans)?
**A.** The MBC was 64 µM.

**Q.** And the MIC (C. albicans)?
**A.** Its MIC is 32 µM.

**Q.** And the MBC (S. aureus (ATCC 6538))?
**A.** Its MBC is 1/1 μM.

**Q.** What about the MBEC [2] of the same compound?
**A.** Its MBEC is 16 µM.

**Q.** What about the MBIC [2] of the same compound?
**A.** The MBIC was 4 µM.

**Q.** What about the IC50 (MRC-5) of the same compound?
**A.** The IC50 was 77.28 µM.

**Q.** What about the IC50 (HaCat) of the same compound?
**A.** The IC50 was 77.89 µM.

**Q.** And the MBC (E. coli (ATCC 8739))?
**A.** Its MBC is 2 µM.

**Q.** And the MIC (E. coli (ATCC 8739))?
**A.** Its MIC is 2 µM.

**Q.** What about the MBC (MRSA (NCTC 12493)) of the same compound?
**A.** Its MBC is 2 µM.

**Q.** What about the MIC (MRSA (NCTC 12493)) of the same compound?
**A.** Its MIC is 1 µM.

**Q.** What about the MBC (A. baumannii (BAA 747)) of the same compound?
**A.** The MBC was 16/16 μM.

**Q.** Which MBEC [1] does the source give for FLSLIPKAIKAVKALAKKL-NH2 [SR2] here?
**A.** The MBEC was 16 µM.

**Q.** And the MBIC [1]?
**A.** Its MBIC is 2 µM.

**Q.** And the MBC (C. albicans)?
**A.** Its MBC is 64 µM.

**Q.** And the MIC (C. albicans)?
**A.** Its MIC is 32 µM.

**Q.** What about the MBC (S. aureus (ATCC 6538)) of the same compound?
**A.** The MBC was 2 µM.

**Q.** And the MIC (S. aureus (ATCC 6538))?
**A.** Its MIC is 2 µM.

**Q.** And the MBEC [2]?
**A.** The MBEC was 16 µM.

**Q.** What about the IC50 (MRC-5) of the same compound?
**A.** The IC50 was 6.56 µM.

**Q.** And the IC50 (HaCat)?
**A.** Its IC50 is 3.48 µM.

**Q.** What about the MBC [3] of the same compound?
**A.** The MBC was 2 µM.

**Q.** And the MIC [3]?
**A.** Its MIC is 2 µM.

**Q.** And the MBC (E. coli (ATCC 8739))?
**A.** The MBC was 2 µM.

**Q.** And the MIC (E. coli (ATCC 8739))?
**A.** Its MIC is 2 µM.

**Q.** What about the MBC (MRSA (NCTC 12493)) of the same compound?
**A.** Its MBC is 2 µM.

**Q.** And the MIC (MRSA (NCTC 12493))?
**A.** The MIC was 2 µM.

**Q.** What about the MBC (A. baumannii (BAA 747)) of the same compound?
**A.** Its MBC is 2/2 μM.

**Q.** FLSLIPKAIKAVSALAKKL-NH2 [SR] was tested. Which MBEC [1] did it give?
**A.** The MBEC was 16 µM.

**Q.** And the MBC (C. albicans)?
**A.** Its MBC is 128 µM.

**Q.** And the MIC (C. albicans)?
**A.** The MIC was 32 µM.

**Q.** And the MBC (S. aureus (ATCC 6538))?
**A.** The MBC was 2 µM.

**Q.** What about the MIC (S. aureus (ATCC 6538)) of the same compound?
**A.** Its MIC is 2 µM.

**Q.** What about the MBEC [2] of the same compound?
**A.** The MBEC was 16 µM.

**Q.** What about the IC50 (MRC-5) of the same compound?
**A.** Its IC50 is 6.98 µM.

**Q.** What about the IC50 (HaCat) of the same compound?
**A.** The IC50 was 4.13 µM.

**Q.** What about the MBC [3] of the same compound?
**A.** Its MBC is 2 µM.

**Q.** And the MIC [3]?
**A.** The MIC was 2 µM.

**Q.** And the MBC (E. coli (ATCC 8739))?
**A.** The MBC was 2 µM.

**Q.** And the MIC (E. coli (ATCC 8739))?
**A.** Its MIC is 2 µM.

**Q.** What about the MBC (MRSA (NCTC 12493)) of the same compound?
**A.** Its MBC is 2 µM.

**Q.** What about the MIC (MRSA (NCTC 12493)) of the same compound?
**A.** Its MIC is 2 µM.

**Q.** What about the MBC (A. baumannii (BAA 747)) of the same compound?
**A.** The MBC was 4/4 μM.
